Patent US3980794A, “Method for promoting growth of poultry with 3-(5-nitro-2-imidazolyl)pyrazoles” (Eli Lilly and Company, priority 1975, dated 1976)
In brackets after ≈: the same amount, converted by molar mass. Read-outs that look alike come from different tables or passages of the source.

Legend:
[1] = tested on: Pasteurella multocida; test: Efficacy against Pasteurella multocida infections in mice when administered by injection (Experiment 1); type: in vivo, Swiss mice; details: ip; for responders at 5 mg/kg: 5.0 mg./kg. i.p.; for responders at 2.5 mg/kg: 2.5 mg./kg. i.p.; for responders at 7.5 mg/kg: 7.5 mg./kg. i.p.
Method: The efficacy of the novel compounds against Pasteurella multocida infections in mice when administered by injection was studied.
Female Swiss mice weighing from 15 to about 20 g. were used. The test compound, 5.0 mg., was weighed out and dissolved in 0.5 ml. of dimethyl sulfoxide, and this solution was added to 9.5 ml. of sodium carboxymethylcellulose suspension. Groups of five mice each were injected intraperitoneally with 0.1 ml. each of the above-prepared test composition. This preparation gave a test rate of 2.5 mg. per kilo of body weight of mouse. The compounds were tested at 2.5, 5.0, or 7.5 mg. per kilo of body weight of mouse, and the test preparations for rates of 5.0 and 7.5 mg./kg. were prepared in a similar manner. Immediately after receiving the test compound, the mice were challenged using log10 dilutions of 10^-^4, 10^-^5, 10^-^6, and 10^-^7 of a 16 to 20-hour tryptose broth culture of Pasteurella multocida at 0.1 ml. per mouse subcutaneously. Similar groups of nontreated control mice were also challenged, the challenge being administered subcutaneously. The groups of mice were observed daily for mortality and the total mortality in treated groups compared with that which occurred in the nonmedicated control groups. Each test compound is identified by the number of the example describing its preparation.
In the chart, column 1 lists the test compound; column 2, the dosage of test compound in mg./kg. of mouse body weight; column 3, the dilution of the challenge organism; and column 4, the ratio of the number of mice surviving the test at each dosage and challenge dilution to the number of mice tested at each dosage and challenge dilution, called the survival ratio.

[2] = tested on: Propionibacterium acnes 79; test: Susceptibility of anaerobic bacteria, agar dilution; type: cell-based; details: read-out: 24 Hr. Minimum Inhibitory Concentration
[3] = tested on: Bacteroides fragilis sp. fragilis 1877; test: as above; type: cell-based; details: 24 h, read-out: 24 Hr. Minimum Inhibitory Concentration
[4] = tested on: Fusobacterium necrophorum 13859; test: as above; type: cell-based; details: read-out: 24 Hr. Minimum Inhibitory Concentration
[5] = tested on: Veillonella alcalescens 1; test: as above; type: cell-based; details: read-out: 24 Hr. Minimum Inhibitory Concentration
[6] = tested on: Pasteurella multocida, bovine strain; test: Oral activity against Pasteurella multocida, bovine strain, in mice (Experiment 3); type: in vivo, White Swiss mice; details: 100 g. per ton of feed; LD50 of control minus LD50 of treated group (log10 dilutions)
Method: White Swiss female mice weighing 15-20 g. each were used in the test. Seven groups of ten mice each were treated at a level of 100 g. of test compound per ton of feed. The animals received the medication in the feed for 2 days prior to challenge and for 7 days post challenge. Similar groups of mice on a ration without the antimicrobial agent were used as controls. Both the treated mice and the control groups of mice were challenged with log10 dilutions ranging from 10^-^2 through 10^-^8 of a 16 to 20-hour culture of Pasteurella multocida, bovine strain, at 0.1 ml. per mouse, administered subcutaneously. […] By subtracting the LD50 of each of the treated groups from that of the control group of mice, there was obtained a figure called the protective index.
In the chart, column 1 lists the test compound, identified in the same manner as set forth in Experiment 1; and column 2 lists the protective index.

[7] = tested on: Pasteurella multocida; test: Oral activity against Pasteurella multocida-caused infection in chickens (Experiment 5A); type: in vivo; details: 100 g./ton in feed
Method: A. Selected examples of the novel compounds were evaluated for their oral activity against Pasteurella multocida-caused infection in chickens. Four to five-week-old chickens were divided into groups of eight, and the compounds administered thereto in the feed. Two replicates were run for each compound. Twenty-four hours after the chickens began receiving the compound in their feed, the treated groups, as well as the nontreated control groups, were challenged intravenously with a broth culture of P. multocida. […] The chicks were observed during seven days following the challenge and the mortality in the treated groups was compared to that of the control group. The heart and liver were removed from each chicken which died during the test and cultured to determine the presence of P. multocida. At the termination of the test, all surviving chickens were sacrificed, the heart and liver removed from each chicken and cultured to determine the presence of P. multocida.

[8] = tested on: P. multocida; test: Oral activity against P. multocida in turkeys (Experiment 5B); type: in vivo; details: 100 g./ton in feed
[9] = tested on: E. coli; test: Oral activity against E. coli infection in chickens (Experiment 6); type: in vivo
Method: The evaluation of the effectiveness of selected nitroimidazoles for their oral activity against E. coli infection in chickens was accomplished as follows.
Broiler type, five-week-old chickens were wing-banded and individually weighed. Replicates of 8 chickens, each replicate having the same average chicken weight, were formed. Three replicates were run for each treatment. Treatment was initiated via the feed 24 hours prior to challenge. The E. coli challenge strain was No. 2- 1- 8. The challenge inoculum consisted of 0.5 ml. of 10^-^1 dilution of a 15-18 hour tryptose broth culture administered into the right thoracic air sac of each chicken. Eight to ten days following challenge, all surviving chickens were weighed and examined for lesions. Any chicken that died during the experiment was also examined for lesions such as air sac lesions, pericarditis lesions, and perihepatitis lesions, and a culture made. The pre-treatment average weight per bird was 790 g. The test compounds were the same as before, identified as 1, 6, and 7.

[10] = challenge dilution 10^-^4, read-out: Survival Ratio (converted)
[11] = challenge dilution 10^-^5, read-out: Survival Ratio (converted)
[12] = challenge dilution 10^-^6, read-out: Survival Ratio (converted)
[13] = Cutibacterium acnes, 24 h, Propionibacterium acnes 79
[14] = Bacteroides fragilis sp. fragilis 1877
[15] = 24 h, Fusobacterium necrophorum 13859
[16] = Veillonella parvula, 24 h, Veillonella alcalescens 1
[17] = challenge dilution 10^-^7, read-out: Survival Ratio (converted)
[18] = challenge dilution 10^-^4, read-out: Survival Ratio
[19] = challenge dilution 10^-^5, read-out: Survival Ratio
[20] = challenge dilution 10^-^6, read-out: Survival Ratio
[21] = Fusobacterium necrophorum, 13859, 24 h

| SMILES | responders at 5 mg/kg [1, 10] | responders at 5 mg/kg [1, 11] | responders at 5 mg/kg [1, 12] | MIC [2, 13] | MIC [3, 14] | MIC [4, 15] | MIC [5, 16] | responders at 2.5 mg/kg [1, 10] | responders at 2.5 mg/kg [1, 11] | responders at 2.5 mg/kg [1, 12] | responders at 7.5 mg/kg [1, 18] | responders at 7.5 mg/kg [1, 19] | responders at 7.5 mg/kg [1, 20] | Protective Index [6] | Culture Isolation P. multocida ([7]; replicate 1) | Survival Ratio ([7]; replicate 1) | MIC ([2]; Cutibacterium acnes, 79, 24 h) | MIC ([3]; Bacteroides fragilis) | MIC [4, 21] | MIC ([5]; Veillonella parvula, 1, 24 h) | also measured |
| --- | --- | --- | --- | --- | --- | --- | --- | --- | --- | --- | --- | --- | --- | --- | --- | --- | --- | --- | --- | --- | --- |
| C=CCOC=Nc1c(C#N)c(-c2ncc([N+](=O)[O-])n2C)nn1C [Compound 13A, Allyl N-[4-cyano-1-methyl-3-(1-methyl-5-nitro-2-imidazolyl)pyrazol-5-yl]formimidate] | 60% | 80% | 100% | < 0.125 µg/mL | 0.5 µg/mL (≈ 1.59 µM) | < 0.125 µg/mL | < 0.125 µg/mL | – | – | – | – | – | – | – | – | – | – | – | – | – | – |
| Cn1nc(-c2ncc([N+](=O)[O-])n2C)c(C#N)c1N [Compound 1, 5-Amino-1-methyl-3-(1-methyl-5-nitro-2-imidazolyl)pyrazole-4-carbonitrile] | 30% | 90% | 90% | – | – | – | – | 10% | 40% | 80% | 70% | 90% | 100% | > 5.6 | 0/ 8 | 8/ 8 | < 0.125 µg/mL | < 0.125 µg/mL | < 0.125 µg/mL | < 0.125 µg/mL | responders at 2.5 mg/kg [1, 17]: 95%; responders at 5 mg/kg [1, 17]: 100%; Culture Isolation P. multocida ([7]; replicate 2): 1/ 8; Survival Ratio ([7]; replicate 2): 8/ 8; Culture Isolation P. multocida ([7]; total): 1/16; Survival Ratio ([7]; total): 16/16; Culture Isolation P. multocida [8]: 0/5; Survival Ratio [8]: 5/5; Avg. Wt./Chicken ([9]; 100 g./ton in feed): 1058 g; No. chickens with lesions/No. in group ([9]; 100 g./ton in feed): 16/24; Survival Ratio ([9]; 100 g./ton in feed): 24/24; Avg. Wt./Chicken ([9]; 200 g./ton in feed): 1104 g; No. chickens with lesions/No. in group ([9]; 200 g./ton in feed): 8/24; Survival Ratio ([9]; 200 g./ton in feed): 24/24; Avg. Wt./Chicken ([9]; 300 g./ton in feed): 1014 g; No. chickens with lesions/No. in group ([9]; 300 g./ton in feed): 1/24; Survival Ratio ([9]; 300 g./ton in feed): 24/24 |
| CCCCOC=Nc1c(C#N)c(-c2ncc([N+](=O)[O-])n2C)nn1C [Compound 7, Butyl N-[4-Cyano-1-methyl-3-(1-methyl-5-nitro-2-imidazolyl)-pyrazol-5-yl]formimidate] | 30% | 45% | 75% | – | – | – | – | 15% | 35% | 70% | 50% | 70% | 100% | 3.4 | 2/ 8 | 6/ 8 | < 0.125 µg/mL | < 0.125 µg/mL | < 0.125 µg/mL | < 0.125 µg/mL | Culture Isolation P. multocida ([7]; replicate 2): 2/ 8; Survival Ratio ([7]; replicate 2): 8/ 8; Culture Isolation P. multocida ([7]; total): 4/16; Survival Ratio ([7]; total): 14/16; Culture Isolation P. multocida [8]: 0/5; Survival Ratio [8]: 5/5; Avg. Wt./Chicken ([9]; 100 g./ton in feed): 1023 g; No. chickens with lesions/No. in group ([9]; 100 g./ton in feed): 15/24; Survival Ratio ([9]; 100 g./ton in feed): 24/24; Avg. Wt./Chicken ([9]; 200 g./ton in feed): 1033 g; No. chickens with lesions/No. in group ([9]; 200 g./ton in feed): 23/24; Survival Ratio ([9]; 200 g./ton in feed): 24/24; Avg. Wt./Chicken ([9]; 300 g./ton in feed): 1132 g; No. chickens with lesions/No. in group ([9]; 300 g./ton in feed): 6/24; Survival Ratio ([9]; 300 g./ton in feed): 24/24 |
| CC(=O)Nc1c(C(=O)O)c(-c2ncc([N+](=O)[O-])n2C)nn1C [Compound 12, 5-acetamido-1-methyl-3-(1-methyl-5-nitro-2-imidazolyl)pyrazole-4-carboxylic acid] | 0% | 30% | 70% | 1 µg/mL (≈ 3.24 µM) | 4 µg/mL (≈ 13 µM) | < 0.125 µg/mL | 0.5 µg/mL (≈ 1.62 µM) | – | – | – | – | – | – | – | – | – | – | – | – | – | – |
| CCCCC(CC)COC=Nc1c(C#N)c(-c2ncc([N+](=O)[O-])n2C)nn1C (centres unmarked) [Compound 13D, 2-Ethylhexyl N-[4-cyano-1-methyl-3-(1-methyl-5-nitro-2-imidazolyl)pyrazol-5-yl]formimidate] | 90% | 100% | 100% | 2 µg/mL (≈ 5.16 µM) | 2 µg/mL (≈ 5.16 µM) | < 0.125 µg/mL | 0.25 µg/mL (≈ 0.645 µM) | 30% | 70% | 90% | 100% | 100% | 100% | – | – | – | – | – | – | – | – |
| Cn1nc(-c2ncc([N+](=O)[O-])n2C)c(C(N)=O)c1N [Compound 2, 5-Amino-1-methyl-3-(1-methyl-5-nitro-2-imidazolyl)pyrazole-4-carboxamide] | – | – | – | – | – | – | – | 50% | 90% | 100% | – | – | – | – | – | – | < 0.125 µg/mL | < 0.125 µg/mL | < 0.125 µg/mL | < 0.125 µg/mL | – |
